Test results from patent US20170008888A1 (KYORIN PHARMACEUTICAL CO., LTD., priority 2014, published 2017).
Where two headings read alike, the source gives them in different places. Blank lines part the entries; values can stand above or below the compound they belong to.

Key:
Format in all cases: binding
ERK5 = biological target: T1, ERK5 (Homo sapiens, UniProt Q13164); experiment: Probe-based (AX9989 acyl phosphate ATP probe) kinase profiling in Jurkat lysate: ERK5; settings: for IC50: Jurkat lysate; for inhibition at 0.1 µM: screening concentration 0.1 μM
T1 construct: screened for activity against several kinases in Jurkat cells; endogenous in cells; host or cells: Jurkat cell lysate
In short: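 Gel-filtered Jurkat lysate (5 mg/ml, 20 mM MnCl2) preincubated 15 min at room temperature with compound, then labelled with 5 μM AX9989 acyl phosphate ATP probe. Probe-labelled ERK5 active-site peptides quantified by LC/MS after trypsin digestion and streptavidin capture; IC50 calculated from percent inhibition at the screening concentration.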

JAK1 = biological target: T2, JAK1 (Homo sapiens, UniProt P23458); experiment: Probe-based (AX9989) kinase profiling in Jurkat lysate: JAK1; settings: for inhibition at 0.1 µM: screening concentration 0.1 μM
T2 construct: screened for activity against several kinases in Jurkat cells; endogenous in cells; host or cells: Jurkat cell lysate
In short: (§1)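 Gel-filtered Jurkat lysate (HEPES pH 7.5, 20 mM MnCl2, 5 mg/ml) was pre-incubated 15 min with compound at room temperature, then labelled with 5 μM acyl-phosphate ATP probe AX9989. Tryptic probe-labelled active-site peptides were streptavidin-captured and quantified by LC/MS. Percent inhibition reflected the decrease in labelled-peptide intensity versus no compound.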

ABL or ARG = experiment: Probe-based (AX9989) kinase profiling in Jurkat lysate: ABL or ARG; settings: for ABL or ARG Inhibition % at indicated screening concentration: screening concentration 1 μM
In short: as §1

AMPKa1 or AMPKa2 = experiment: Probe-based (AX9989) kinase profiling in Jurkat lysate: AMPKa1 or AMPKa2; settings: for AMPKa1 or AMPKa2 Inhibition % at indicated screening concentration: screening concentration 1 μM
In short: as §1

TAO2 = biological target: T3, TAO2 (Homo sapiens, UniProt Q9UL54); experiment: Probe-based (AX9989) kinase profiling in Jurkat lysate: TAO2; settings: for inhibition at 0.1 µM: screening concentration 0.1 μM
T3 construct: screened for activity against several kinases in Jurkat cells; endogenous in cells; host or cells: Jurkat cell lysate
T3 sequence (Q9UL54 1-1235): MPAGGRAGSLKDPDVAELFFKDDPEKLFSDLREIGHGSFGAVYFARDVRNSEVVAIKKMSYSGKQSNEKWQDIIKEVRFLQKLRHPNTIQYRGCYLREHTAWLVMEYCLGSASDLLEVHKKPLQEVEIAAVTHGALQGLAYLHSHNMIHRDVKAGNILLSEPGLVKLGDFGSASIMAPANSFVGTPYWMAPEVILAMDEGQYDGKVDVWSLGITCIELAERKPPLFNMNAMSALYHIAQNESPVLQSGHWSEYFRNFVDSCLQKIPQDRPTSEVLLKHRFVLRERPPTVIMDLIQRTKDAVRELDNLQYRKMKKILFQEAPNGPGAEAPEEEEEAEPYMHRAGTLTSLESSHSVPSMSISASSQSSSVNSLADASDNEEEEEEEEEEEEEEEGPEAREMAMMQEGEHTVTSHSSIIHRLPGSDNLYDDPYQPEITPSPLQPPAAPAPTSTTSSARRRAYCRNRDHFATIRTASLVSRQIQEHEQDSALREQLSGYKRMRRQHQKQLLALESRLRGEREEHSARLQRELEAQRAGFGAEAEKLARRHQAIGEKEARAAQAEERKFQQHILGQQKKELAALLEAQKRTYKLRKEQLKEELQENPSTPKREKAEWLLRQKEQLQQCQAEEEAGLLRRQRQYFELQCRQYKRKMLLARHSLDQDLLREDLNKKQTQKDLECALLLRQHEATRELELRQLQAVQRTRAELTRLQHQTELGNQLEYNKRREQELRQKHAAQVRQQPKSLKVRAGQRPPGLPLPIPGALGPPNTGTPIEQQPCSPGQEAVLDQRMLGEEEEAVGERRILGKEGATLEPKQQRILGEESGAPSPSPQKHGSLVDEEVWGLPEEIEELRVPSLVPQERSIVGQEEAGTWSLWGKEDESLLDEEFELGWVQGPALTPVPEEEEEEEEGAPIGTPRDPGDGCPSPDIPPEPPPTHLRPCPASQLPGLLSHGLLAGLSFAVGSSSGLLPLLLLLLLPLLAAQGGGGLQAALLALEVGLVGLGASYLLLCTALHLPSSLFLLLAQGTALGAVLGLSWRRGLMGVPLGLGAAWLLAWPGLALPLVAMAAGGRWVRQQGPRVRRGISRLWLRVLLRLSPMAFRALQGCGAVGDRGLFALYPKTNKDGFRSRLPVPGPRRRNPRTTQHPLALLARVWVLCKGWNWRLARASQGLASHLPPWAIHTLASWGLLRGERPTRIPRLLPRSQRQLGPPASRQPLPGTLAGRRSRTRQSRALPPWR
In short: as §1

AurA = biological target: T4, AurA (Homo sapiens, UniProt O14965); experiment: Probe-based (AX9989) kinase profiling in Jurkat lysate: AurA; settings: for inhibition at 0.1 µM: screening concentration 0.1 μM
T4 construct: screened for activity against several kinases in Jurkat cells; endogenous in cells; host or cells: Jurkat cell lysate
T4 sequence (O14965 1-403): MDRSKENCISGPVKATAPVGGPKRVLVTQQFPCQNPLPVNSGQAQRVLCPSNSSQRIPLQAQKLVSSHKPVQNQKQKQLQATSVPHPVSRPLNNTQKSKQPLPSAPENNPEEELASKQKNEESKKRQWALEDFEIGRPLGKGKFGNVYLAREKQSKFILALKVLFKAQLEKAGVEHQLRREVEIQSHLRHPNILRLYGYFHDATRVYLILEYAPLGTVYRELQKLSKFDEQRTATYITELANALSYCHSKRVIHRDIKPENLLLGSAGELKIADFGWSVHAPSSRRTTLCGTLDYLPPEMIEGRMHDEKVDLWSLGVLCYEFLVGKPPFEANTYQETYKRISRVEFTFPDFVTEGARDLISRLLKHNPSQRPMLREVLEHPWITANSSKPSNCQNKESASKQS
In short: as §1

[1] = calculated from percent inhibition and screening concentration, AX9989 probe
[2] = screening concentration 1 μM, read-out: ERK5 Inhibition % at indicated screening concentration
[3] = screening concentration 1 μM, read-out: JAK1 Inhibition % at indicated screening concentration
[4] = screening concentration 1 μM, read-out: TAO2 Inhibition % at indicated screening concentration
[5] = screening concentration 1 μM, read-out: AurA Inhibition % at indicated screening concentration
[6] = calculated from percent inhibition of AX9989 labeling and the screening concentration
[7] = read-out: Kinase inhibition % at indicated screening concentration: ERK5
[8] = read-out: Kinase inhibition % at indicated screening concentration: JAK1
[9] = read-out: Kinase inhibition % at indicated screening concentration: TAO2
[10] = read-out: Kinase inhibition % at indicated screening concentration: AurA
[11] = screening concentration 1.0 μM, read-out: Kinase inhibition % at indicated screening concentration: ERK5
[12] = screening concentration 1.0 μM, read-out: Kinase inhibition % at indicated screening concentration: JAK1
[13] = screening concentration 1.0 μM, read-out: Kinase inhibition % at indicated screening concentration: TAO2
[14] = screening concentration 1.0 μM, read-out: Kinase inhibition % at indicated screening concentration: AurA

T1 sequence (Q13164 whole entry): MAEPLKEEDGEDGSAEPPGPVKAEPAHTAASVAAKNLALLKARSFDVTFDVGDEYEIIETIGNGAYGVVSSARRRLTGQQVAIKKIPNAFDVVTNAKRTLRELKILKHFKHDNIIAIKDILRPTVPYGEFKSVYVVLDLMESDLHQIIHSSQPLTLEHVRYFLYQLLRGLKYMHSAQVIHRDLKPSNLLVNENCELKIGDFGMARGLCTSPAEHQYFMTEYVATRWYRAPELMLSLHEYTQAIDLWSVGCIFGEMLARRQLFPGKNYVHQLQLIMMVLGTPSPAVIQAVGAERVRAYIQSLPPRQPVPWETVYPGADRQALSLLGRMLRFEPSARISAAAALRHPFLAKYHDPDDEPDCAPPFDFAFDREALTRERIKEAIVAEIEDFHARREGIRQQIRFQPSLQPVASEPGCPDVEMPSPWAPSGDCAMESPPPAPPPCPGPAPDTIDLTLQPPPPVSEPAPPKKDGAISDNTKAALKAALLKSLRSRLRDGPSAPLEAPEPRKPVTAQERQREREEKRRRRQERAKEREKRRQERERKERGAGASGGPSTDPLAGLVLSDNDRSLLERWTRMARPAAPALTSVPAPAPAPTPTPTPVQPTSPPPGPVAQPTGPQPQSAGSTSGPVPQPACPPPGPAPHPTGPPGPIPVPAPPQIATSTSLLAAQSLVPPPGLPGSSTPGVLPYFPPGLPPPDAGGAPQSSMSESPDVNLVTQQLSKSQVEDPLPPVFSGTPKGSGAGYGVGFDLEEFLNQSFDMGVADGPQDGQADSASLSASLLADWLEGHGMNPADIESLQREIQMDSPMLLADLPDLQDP
T2 sequence (P23458 whole entry): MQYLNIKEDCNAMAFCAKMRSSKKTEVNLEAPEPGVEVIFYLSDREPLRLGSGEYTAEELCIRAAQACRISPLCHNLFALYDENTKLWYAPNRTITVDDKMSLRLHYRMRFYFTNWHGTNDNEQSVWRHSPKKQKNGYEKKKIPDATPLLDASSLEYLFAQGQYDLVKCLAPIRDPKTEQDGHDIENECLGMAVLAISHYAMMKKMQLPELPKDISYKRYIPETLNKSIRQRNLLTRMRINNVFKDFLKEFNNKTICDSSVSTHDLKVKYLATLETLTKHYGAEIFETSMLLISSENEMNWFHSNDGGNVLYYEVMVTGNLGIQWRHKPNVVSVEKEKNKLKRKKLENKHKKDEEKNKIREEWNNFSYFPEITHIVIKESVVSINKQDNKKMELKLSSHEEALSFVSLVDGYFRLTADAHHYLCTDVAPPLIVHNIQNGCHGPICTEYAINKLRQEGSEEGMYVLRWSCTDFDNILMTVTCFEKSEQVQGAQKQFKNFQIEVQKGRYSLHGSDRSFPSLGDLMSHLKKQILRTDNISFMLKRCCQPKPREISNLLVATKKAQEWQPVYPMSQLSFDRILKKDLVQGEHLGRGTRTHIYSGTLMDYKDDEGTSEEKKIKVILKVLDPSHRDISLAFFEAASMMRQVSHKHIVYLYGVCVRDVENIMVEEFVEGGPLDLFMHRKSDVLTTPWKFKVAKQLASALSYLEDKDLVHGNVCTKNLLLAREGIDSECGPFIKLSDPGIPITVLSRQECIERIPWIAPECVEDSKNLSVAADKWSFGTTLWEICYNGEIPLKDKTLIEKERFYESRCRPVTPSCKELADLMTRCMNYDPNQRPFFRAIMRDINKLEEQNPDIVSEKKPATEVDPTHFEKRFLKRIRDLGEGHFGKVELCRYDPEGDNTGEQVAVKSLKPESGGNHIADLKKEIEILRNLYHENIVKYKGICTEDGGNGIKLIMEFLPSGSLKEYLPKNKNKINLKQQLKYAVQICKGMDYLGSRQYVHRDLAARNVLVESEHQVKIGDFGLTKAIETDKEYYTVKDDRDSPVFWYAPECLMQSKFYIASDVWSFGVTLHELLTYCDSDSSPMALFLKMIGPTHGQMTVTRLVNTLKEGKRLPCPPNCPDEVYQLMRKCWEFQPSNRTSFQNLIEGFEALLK

Compound: CCOc1cc(C(=O)N[C@H]2CC[C@@H](O)CC2)ccc1Nc1cc2c(cn1)N(C)C(=O)c1ccccc1N2C [Compound T63]
IC50 (ERK5; [1]): 101 to 500 nM | inhibition at 1 µM (ERK5; [2]): 75 to 90% | inhibition at 1 µM (JAK1; [3]): ≤ 35% | ABL or ARG Inhibition % at indicated screening concentration (ABL or ARG): E (E is ≦35%) | AMPKa1 or AMPKa2 Inhibition % at indicated screening concentration (AMPKa1 or AMPKa2): E (E is ≦35%) | inhibition at 1 µM (TAO2; [4]): ≤ 35% | inhibition at 1 µM (AurA; [5]): ≤ 35%

Compound: CCOc1cc(C(=O)N2CC[C@H](C#N)C2)ccc1Nc1cc2c(cn1)N(C)C(=O)c1ccccc1N2C [Compound T22]
IC50 (ERK5; [1]): ≤ 50 nM | inhibition at 1 µM (ERK5; [2]): > 90% | inhibition at 1 µM (JAK1; [3]): ≤ 35% | ABL or ARG Inhibition % at indicated screening concentration (ABL or ARG): E (E is ≦35%) | AMPKa1 or AMPKa2 Inhibition % at indicated screening concentration (AMPKa1 or AMPKa2): E (E is ≦35%) | inhibition at 1 µM (TAO2; [4]): ≤ 35% | inhibition at 1 µM (AurA; [5]): ≤ 35%

Compound: CN1C(=O)c2ccccc2N(C)c2cc(NC3CCOCC3)ncc21 [Compound 102]
IC50 (ERK5; [6]): 101 to 500 nM | inhibition at 1 µM (ERK5; [11]): 75 to 90% | inhibition at 1 µM (JAK1; [12]): ≤ 35% | Kinase inhibition % at indicated screening concentration: ABL or ARG (ABL or ARG; screening concentration 1.0 μM): E (E is ≦35%) | Kinase inhibition % at indicated screening concentration: AMPKa1 or AMPKa2 (AMPKa1 or AMPKa2; screening concentration 1.0 μM): E (E is ≦35%) | inhibition at 1 µM (TAO2; [13]): ≤ 35% | inhibition at 1 µM (AurA; [14]): ≤ 35%

Next, values leading:

IC50 (ERK5; [6]): ≤ 50 nM | inhibition at 0.1 µM (ERK5; [7]): > 90% | inhibition at 0.1 µM (JAK1; [8]): ≤ 35% | Kinase inhibition % at indicated screening concentration: ABL or ARG (ABL or ARG; screening concentration 0.1 μM): E (E is ≦35%) | Kinase inhibition % at indicated screening concentration: AMPKa1 or AMPKa2 (AMPKa1 or AMPKa2; screening concentration 0.1 μM): E (E is ≦35%) | inhibition at 0.1 µM (TAO2; [9]): ≤ 35% | inhibition at 0.1 µM (AurA; [10]): ≤ 35%
Compound: CCOc1cc(C(=O)N2CCC(N3CCCC3)CC2)ccc1Nc1cc2c(cn1)N(C)C(=O)c1occc1N2C [Compound 91, 6-((2-Ethoxy-4-(4-(pyrrolidin-1-yl)piperidine-1-carbonyl)phenyl)amino)-4,9-dimethyl-4H-furo[3,2-e]pyrido[3,4-b][1,4]diazepin-10(9H)-one]

IC50 (ERK5; [6]): ≤ 50 nM | inhibition at 1 µM (ERK5; [11]): > 90% | inhibition at 1 µM (JAK1; [12]): ≤ 35% | Kinase inhibition % at indicated screening concentration: ABL or ARG (ABL or ARG; screening concentration 1.0 μM): E (E is ≦35%) | Kinase inhibition % at indicated screening concentration: AMPKa1 or AMPKa2 (AMPKa1 or AMPKa2; screening concentration 1.0 μM): E (E is ≦35%) | inhibition at 1 µM (TAO2; [13]): ≤ 35% | inhibition at 1 µM (AurA; [14]): ≤ 35%
Compound: CCOc1cc(C(=O)N2CCN(CC)CC2)ccc1Nc1cc2c(cn1)N(C)C(=O)c1ccccc1N2C [Compound 108]

IC50 (ERK5; [6]): 101 to 500 nM | inhibition at 1 µM (ERK5; [11]): 75 to 90% | inhibition at 1 µM (JAK1; [12]): ≤ 35% | Kinase inhibition % at indicated screening concentration: ABL or ARG (ABL or ARG; screening concentration 1.0 μM): E (E is ≦35%) | Kinase inhibition % at indicated screening concentration: AMPKa1 or AMPKa2 (AMPKa1 or AMPKa2; screening concentration 1.0 μM): E (E is ≦35%) | inhibition at 1 µM (TAO2; [13]): ≤ 35% | inhibition at 1 µM (AurA; [14]): ≤ 35%
Compound: CCOc1cc(C(=O)NCCOCCO)ccc1Nc1cc2c(cn1)N(C)C(=O)c1ccccc1N2C [Compound 101]

IC50 (ERK5; [6]): ≤ 50 nM | inhibition at 0.1 µM (ERK5; [7]): > 90% | inhibition at 0.1 µM (JAK1; [8]): ≤ 35% | Kinase inhibition % at indicated screening concentration: ABL or ARG (ABL or ARG; screening concentration 0.1 μM): E (E is ≦35%) | Kinase inhibition % at indicated screening concentration: AMPKa1 or AMPKa2 (AMPKa1 or AMPKa2; screening concentration 0.1 μM): E (E is ≦35%) | inhibition at 0.1 µM (TAO2; [9]): ≤ 35% | inhibition at 0.1 µM (AurA; [10]): ≤ 35%
Compound: CCOc1cc(C(=O)N2CC[C@@H](N3CCCCC3)C2)ccc1Nc1cc2c(cn1)N(C)C(=O)c1occc1N2C [Compound 56]
